Source: patent US12295957B2, “Ascorbic acid and quinone compounds in combination with an antiparasitic agent for treating a parasitic disease” (IC-MedTech Corp., priority 2018, dated 2025)
“Also recorded” adds a separate entry of the source.

Experiments:
Format in all cases: in vivo, BALB/c mice
[1] = test system: Trypanosoma cruzi; assay: Survival/mortality of mice with acute Trypanosoma cruzi infection; details: for mortality: vitamin C 200 mg/kg or vitamin K3 3.5 mg/kg alone, orally once a day
Method: (§1) Male BALB/c mice (approximately 7-8 weeks) were infected intraperitoneally with 10^4 parasites per mouse. Treatment started 24 hours after infection. The administration of vitamin C (i.e., L-ascorbic acid), vitamin K3 (i.e., 2-methyl-1,4-naphthoquinone or menadione), APATONE®, and benznidazole, alone or in combination, were administered once a day orally in different concentrations.
(§2) The mice were divided into the following groups and each group contained seven mice: • i. infected and not treated; • ii. infected and treated with 200 mg/kg of vitamin C; • iii. infected and treated with 3.5 mg/kg of vitamin K3; • iv. infected and treated with APATONE® (200 mg/kg of vitamin C and 3.5 mg/kg of vitamin K3); • v. infected and treated with APATONE® (200 mg/kg of vitamin C and 3.5 mg/kg of vitamin K3) plus 5 mg/kg benznidazole; • vi. infected and treated with benznidazole at 5 mg/kg; • vii. infected and treated with benznidazole at 100 mg/kg; and • viii. not infected and not treated.
Parasitemia levels were individually checked every day starting from 3 days postinfection (dpi) over a 21-day period by direct microscopic analysis of 5 μL blood drawn by puncture of the tail tip of each mouse. The parasites present in 50 fields were counted in 40× objective. Mortality was checked daily until 21 dpi and was expressed as a percentage of survival. All assays were carried out after the approval of the Ethical Conduct on the use of Animals in Experiments (CEAE) of UE111, protocol number CEUA 6642060717.

[2] = test system: Trypanosoma cruzi; assay: Parasitemia by direct microscopic count of blood in mice infected with Trypanosoma cruzi; details: 3-21 dpi
Method: as §1, §2
Parasitemia levels were individually checked every day starting from 3 days postinfection (dpi) over a 21-day period by direct microscopic analysis of 5 μL blood drawn by puncture of the tail tip of each mouse. The parasites present in 50 fields were counted in 40× objective. Mortality was checked daily until 21 dpi and was expressed as a percentage of survival. […]

[3] = test system: TNF-α; assay: Heart cytokine level (cytokine bead array, flow cytometry) in T. cruzi infected mice: TNF-α
Method: (§3) Cytokine analysis was performed on the mice infected with T. cruzi. A cytokine bead (CBA) kit was used to quantify the levels of Th1 cytokines (IL-2, TNF-α, and INF-γ), Th2 (IL-4, IL-5, and IL-10A), and Th17 (IL-17) by flow cytometry. Seven bead populations with different fluorescence intensities were conjugated to a specific capture antibody for each cytokine, mixed to the CBA and read […] FL3 channel of a FACSCalibur flow cytometer. The populations of beads were visualized according to their respective fluorescence intensities: from less bright to brighter.
(§4) Acquisition tubes were prepared with: 50 μL of a sample, 50 μL of beads, and 50 μL of Th1/Th2/Th17 PE (Mouse Th1/Th2/Th17 PE Detection Reagent/1 vial, 4 mL). The same procedure was performed to obtain a standard curve. The samples in the tubes were homogenized and incubated for three hours at room temperature in dark. The data acquisition and analysis were performed using a FACSCalibur flow cytometer equipped with a CellQuest software.
(§5) The levels of proinflammatory (IL-6, TNF-α, INF-γ, IL-2, and IL-17) and anti-inflammatory cytokines (IL-4 and IL-10) in heart (FIG. 3) in blood were determined on the mice infected with T. cruzi. […] However, the levels of IL-6 and TNF-α in this group were still high compared with the uninfected and untreated group. […] Thus, it is likely that the high levels of IL-6 and TNF-α in the mice infected with T. cruzi and treated with benznidazole (5 mg) are related to the inflammatory process induced by the parasite in the bloodstream. […] Thus, it is likely that the high levels of IL-6 and TNF-α in the mice infected with T. cruzi and treated with benznidazole (100 mg) are related to the proinflammatory activity of benznidazole (a side effect). […] The levels of IL-6, TNF-α, and IFN-γ in the group treated with APATONE® and benznidazole (5 mg/kg/day) in combination are similar to the levels of IL-6, TNF-α and IFN-γ in the uninfected and untreated group.

[4] = test system: IL-6; assay: Heart cytokine level (cytokine bead array, flow cytometry) in T. cruzi infected mice: IL-6
Method: as §3, §4, §5

[5] = benznidazole alone at 5 mg/kg, seven mice per group, until 21 dpi

Compound | mice remaining [1, 5] [mice] | mice that died [1, 5] | mice that died ([1]; benznidazole alone at 100 mg/kg, until 21 dpi) | parasites in the bloodstream (parasitemia) ([2]; benznidazole alone at 5 mg/kg orally once a day, 5 mg/kg) | parasites in the bloodstream (parasitemia) ([2]; benznidazole alone at 100 mg/kg orally once a day, 100 mg/kg) | level of TNF-α in heart compared with the infected and untreated group ([3]; benznidazole at 5 mg) | level of TNF-α in heart compared with the uninfected and untreated group ([3]; benznidazole at 5 mg) | level of TNF-α in heart compared with the infected and untreated group ([3]; benznidazole at 100 mg) | level of TNF-α in heart compared with the uninfected and untreated group ([3]; benznidazole at 100 mg) | level of IL-6 in heart compared with the infected and untreated group ([4]; benznidazole at 5 mg) | level of IL-6 in heart compared with the uninfected and untreated group ([4]; benznidazole at 5 mg) | level of IL-6 in heart compared with the infected and untreated group ([4]; benznidazole at 100 mg) | level of IL-6 in heart compared with the uninfected and untreated group ([4]; benznidazole at 100 mg) | mortality [1]
O=C(Cn1ccnc1[N+](=O)[O-])NCc1ccccc1 [benznidazole] | 4 | Three mice died | No mice died | did not decrease the amount of parasites | no parasite was observed; also recorded: no parasite detected | significant decrease | still high | significant decrease | still high | significant decrease | still high | significant decrease | still high | –
O=C1O[C@H]([C@@H](O)CO)C(O)=C1O [vitamin C, L-ascorbic acid] | – | – | – | – | – | – | – | – | – | – | – | – | – | died from day 14
CC1=CC(=O)c2ccccc2C1=O [vitamin K3, 2-methyl-1,4-naphthoquinone] | – | – | – | – | – | – | – | – | – | – | – | – | – | died from day 14
